Results published in ChEMBL document CHEMBL1127068, “Selective inhibition of mammalian lanosterol 14 alpha-demethylase: a possible strategy for cholesterol lowering” (J Med Chem, 1993).
Several values for one entry are separate records, joined by “and”; a condition that tells them apart may be missing. Equal entries are not always repeated.

Columns and labels:
Format in all cases: functional, Cricetulus griseus
Cricetinae gen. sp. [1] = experiment: Effect on total serum cholesterol in male hamsters at a dose of 60 mg/kg orally administered for 3 days; settings: route oral
Cricetinae gen. sp. [2] = experiment: Percentage lowering of the total serum cholesterol in male hamsters at a dose of 60 […] orally administered for 3 days
Cricetinae gen. sp. [3] = experiment: Percentage lowering of the total serum cholesterol in male hamsters at a dose of 50 mg/dL orally administered for 14 days
Cricetinae gen. sp. [4] = experiment: Percentage lowering of the total serum cholesterol in male hamsters at a dose of 75 mg/dL orally administered for 14 days
Cricetinae gen. sp. [5] = experiment: Effect on total serum cholesterol in male hamsters at a dose of 25 mg/kg orally administered for 14 days; settings: route oral
Cricetinae gen. sp. [6] = experiment: Percentage lowering of the total serum cholesterol in male hamsters at a dose of 100 […] orally administered for 14 days
Cricetinae gen. sp. [7] = experiment: Effect on total serum cholesterol in male hamsters at a dose of 50 mg/kg orally administered for 14 days; settings: route oral
Cricetinae gen. sp. [8] = experiment: Effect on total serum cholesterol in male hamsters at a dose of 75 mg/kg orally administered for 14 days; settings: route oral
Cricetinae gen. sp. [9] = experiment: Percentage lowering of the total serum cholesterol in male hamsters at a dose of 25 mg/dL orally administered for 14 days
Cricetinae gen. sp. [10] = experiment: Effect on total serum cholesterol in male hamsters at a dose of 100 mg/kg orally administered for 14 days; settings: route oral
Cricetinae gen. sp. [11] = experiment: Percentage lowering of the total serum cholesterol in male hamsters at a dose of 150 […] orally administered for 14 days
Cricetinae gen. sp. [12] = experiment: Effect on total serum cholesterol in male hamsters at a dose of 10 mg/kg orally administered for 14 days; settings: route oral
Cricetinae gen. sp. [13] = experiment: Effect on total serum cholesterol in male hamsters at a dose of 5 mg/kg orally administered for 14 days; settings: route oral
Cricetinae gen. sp. [14] = experiment: Effect on total serum cholesterol in male hamsters at a dose of 150 mg/kg orally administered for 14 days; settings: route oral
Cricetinae gen. sp. [15] = experiment: Percentage lowering of the total serum cholesterol in male hamsters at a dose of 5 mg/dL orally administered for 14 days
Cricetinae gen. sp. [16] = experiment: Effect on total serum cholesterol in male hamsters at a dose of 200 mg/kg orally administered for 14 days; settings: route oral
Cricetinae gen. sp. [17] = experiment: Percentage lowering of the total serum cholesterol in male hamsters at a dose of 200 […] orally administered for 14 days
Cricetinae gen. sp. [18] = experiment: Percentage lowering of the total serum cholesterol in male hamsters at a dose of 10 […] orally administered for 14 days

Row | SMILES | TC (Cricetinae gen. sp. [1]) | Lowering (Cricetinae gen. sp. [2]) | Lowering (Cricetinae gen. sp. [3]) | Lowering (Cricetinae gen. sp. [4]) | TC (Cricetinae gen. sp. [5]) | Lowering (Cricetinae gen. sp. [6]) | TC (Cricetinae gen. sp. [7]) | TC (Cricetinae gen. sp. [8]) | Lowering (Cricetinae gen. sp. [9]) | TC (Cricetinae gen. sp. [10]) | Lowering (Cricetinae gen. sp. [11]) | TC (Cricetinae gen. sp. [12]) | TC (Cricetinae gen. sp. [13]) | TC (Cricetinae gen. sp. [5]; 25 mg/kg) | TC (Cricetinae gen. sp. [14]) | Lowering (Cricetinae gen. sp. [15]) | TC (Cricetinae gen. sp. [16]) | TC (Cricetinae gen. sp. [7]; 50 mg/kg) | Lowering (Cricetinae gen. sp. [17]) | Lowering (Cricetinae gen. sp. [18])
1 | Nc1ccc(SC[C@H]2CO[C@](CCc3ccc(Cl)cc3)(Cn3ccnc3)O2)cc1 | 85.1 mg/dL | 40% |  |  |  |  |  |  |  |  |  |  |  |  |  |  |  |  |  | 
2 | Cl.Cl.Cl.Nc1ccc(SC[C@@H]2CO[C@](CCc3ccc(Cl)cc3)(Cn3ccnc3)O2)cc1 |  |  | 30% | 40% | 117.4 mg/dL | 49% | 88.9 mg/dL | 76 mg/dL | 8% | 65.6 mg/dL |  |  |  |  |  |  |  |  |  | 
3 | CC[C@H](C)C(=O)O[C@H]1C[C@@H](C)C=C2C=C[C@H](C)[C@H](CC[C@@H]3C[C@@H](O)CC(=O)O3)[C@H]21 [LOVASTATIN] |  |  | 16% and 19% |  |  | 26% |  |  | 6% and 10% | 94.9 mg/dL | 37% | 102.8 mg/dL | 112.2 mg/dL | 111.2 mg/dL and 114 mg/dL | 80.3 mg/dL | 5% | 79.5 mg/dL | 99.4 mg/dL and 102 mg/dL | 38% | 13%
